Literature values in PubChem BioAssay AID1259409 (Chemical Carcinogenesis Research Information System (CCRIS), 2018).

System: rodent chemically induced tumor inhibition, incidence and multiplicity
Assay: CCRIS tumor inhibitor studies
Settings: Promoter: NONE USED

## C[C@]12CC[C@H](O)CC1=CC[C@@H]1[C@@H]2CC[C@]2(C)C(=O)CC[C@@H]12
Carcinogen: 1,2-DIMETHYLHYDRAZINE, 540-73-8, Dose [Inhibitor]: 0.6% IN DIET BEGINNING 2 WK PRIOR TO 1ST CARCINOGEN DOSE FOR DURATION OF EXPERIMENT (STUDY DURATION: 42 WK), Route [Inhibitor]: ORAL, Species: MOUSE, Strain/Sex: BALB/C/FEMALE, Target Tissue: Type of Lesion: ANUS: SQUAMOUS CELL CARCINOMA, FIBROSARCOMA, Dose [Carcinogen]: 21 MG/KG 1/WK FOR 20 WK
  tumour outcome (control, treated, inhibition, significance): 38%, 50%, -32%, not calculated
Carcinogen: 1,2-DIMETHYLHYDRAZINE, 540-73-8, Dose [Inhibitor]: 0.6% IN DIET BEGINNING 2 WK PRIOR TO 1ST CARCINOGEN DOSE FOR DURATION OF EXPERIMENT (STUDY DURATION: 42 WK), Route [Inhibitor]: ORAL, Species: MOUSE, Strain/Sex: BALB/FEMALE, Target Tissue: Type of Lesion: ANUS: SQUAMOUS CELL CARCINOMA, FIBROSARCOMA, Dose [Carcinogen]: 21 MG/KG 1/WK FOR 20 WK
  tumour outcome (control, treated, inhibition, significance): 26/151 (17%), 0/141 (0%), 100%, p<0.001
Carcinogen: 7,12-DIMETHYLBENZ[A]ANTHRACENE, 57-97-6, Dose [Inhibitor]: 0.6% IN DIET BEGINNING 9 D POST CARCINOGEN DOSE (STUDY DURATION: 14 WK AFTER AGENT TREATMENT), Route [Inhibitor]: ORAL, Species: MOUSE, Strain/Sex: STRAIN-A/FEMALE, Target Tissue: Type of Lesion: LUNG: TUMOR, Dose [Carcinogen]: 0.5 MG IN 0.2 ML SESAME OIL ONCE
  tumour outcome (control, treated, inhibition, significance): 28/28 (100%), 20/23 (87%), 13%, not calculated
Carcinogen: 7,12-DIMETHYLBENZ[A]ANTHRACENE, 57-97-6, Dose [Inhibitor]: 100 UG IN 0.2 ML ACETONE 1 HR PRIOR TO EACH CARCINOGEN DOSE (STUDY DURATION: 290 D), Route [Inhibitor]: DERMAL, Species: MOUSE, Strain/Sex: CD-1/FEMALE, Target Tissue: Type of Lesion: SKIN: CARCINOMA, Dose [Carcinogen]: 200 NMOL AT 6-7 WK OF AGE THEN 100 NMOL 1/WK 2 WK LATER
  tumour outcome (control, treated, inhibition, significance): 14/28 (50%), 5/26 (19%), 62%, p<0.001
Carcinogen: 7,12-DIMETHYLBENZ[A]ANTHRACENE, 57-97-6, Dose [Inhibitor]: 400 UG IN 0.2 ML ACETONE 1 HR PRIOR TO EACH CARCINOGEN DOSE (STUDY DURATION: 290 D), Route [Inhibitor]: DERMAL, Species: MOUSE, Strain/Sex: CD-1/FEMALE, Target Tissue: Type of Lesion: SKIN: CARCINOMA, Dose [Carcinogen]: 200 NMOL AT 6-7 WK OF AGE THEN 100 NMOL 1/WK 2 WK LATER
  tumour outcome (control, treated, inhibition, significance): 14/28 (50%), 3/27 (11%), 78%, p<0.001
Carcinogen: AZOXYMETHANE, 25843-45-2, Dose [Inhibitor]: 0, 0.5% DIET BEGINNING 1 DAY AFTER LAST CARCINOGEN DOSE AND CONTINUING FOR DURATION OF STUDY (STUDY DURATION: 18 WK), Route [Inhibitor]: ORAL, Species: RAT, Strain/Sex: F344/MALE, Target Tissue: Type of Lesion: COLON: TUMOR, Dose [Carcinogen]: 10 MG/KG 1/WK FOR 10 WK
  tumour outcome (control, treated, inhibition, significance): 10/15 (67%), 7/15 (47%), 30%, not significant
Carcinogen: AZOXYMETHANE, 25843-45-2, Dose [Inhibitor]: 0, 0.5% DIET BEGINNING 1 DAY AFTER LAST CARCINOGEN DOSE AND CONTINUING FOR DURATION OF STUDY (STUDY DURATION: 18 WK), Route [Inhibitor]: ORAL, Species: RAT, Strain/Sex: F344/MALE, Target Tissue: Type of Lesion: SMALL INTESTINE: TUMOR, Dose [Carcinogen]: 10 MG/KG 1/WK FOR 10 WK
  tumour outcome (control, treated, inhibition, significance): 10/15 (67%), 8/15 (53%), 21%, not significant
